Patent US9855229B2, “Treatment of respiratory disorders using ROR-gamma inhibitors” (Glenmark Pharmaceuticals S.A., priority 2015, dated 2018)

How the values were obtained:
[1] = biological target: human RORγ receptor (GST-tagged ROR gamma ligand binding domain) (Homo sapiens (Human), UniProt P51449); assay: TR-FRET assay for ROR gamma (Lantha Screen co-activator peptide recruitment); type: biochemical; details: 10 nM GST-tagged ROR gamma LBD, read-out: IC50 value for inhibiting human RORγ receptor activity
Source text: The compounds described herein were screened for RORγ inhibitor activity using the TR-FRET assay by Lantha Screen as described in JBC 2011, 286, 26: 22707-10; and Drug Metabolism and Disposition 2009, 37, 10: 2069-78
TR-FRET Assay for ROR Gamma:
The assay is based on the principle that binding of the agonist to the RORγ causes a conformational change around helix 12 in the ligand binding domain, resulting in higher affinity for the co-activator peptide. The Fluorescein-D22 co-activator peptide used in the assay is recruited in the absence of a ligand. Binding of the co-activator peptide, causes an increase in the TR-FRET signal while binding of an inhibitor decreases the recruitment of the co-activator peptide, causing a decrease in the TR-FRET signal compared to a control with no test compound. The assay was performed using a two-step procedure, pre-incubation step with the test compound followed by the detection step on addition of the anti-GST tagged terbium (Tb) and fluorescein tagged fluorophores as the acceptor.
Test compounds or reference compounds such as T0901317 (Calbiochem) were dissolved in dimethylsulfoxide (DMSO) to prepare 10.0 mM stock solutions and diluted to the desired concentration. The final concentration of DMSO in the reaction was 4% (v/v). The assay mixture was prepared by mixing 10 nM of the GST-tagged ROR gamma ligand binding domain (LBD) in the assay buffer containing 25 mM HEPES (pH 7.4), 100 mM NaCl, 5 mM DTT and 0.01% BSA with or without the desired concentration of the test compound. The reaction was incubated at 22° C. for 1 hour. The pre-incubation step was terminated by addition of the detection mixture containing 300 nM Fluorescein-D22 co-activator peptide and 10 nM lantha screen Tb-anti GST antibody into the reaction mixture. After shaking for 5 minutes the reaction was further incubated for 1 hour at room temperature and read at 4° C. on an Infinite F500 reader as per the kit instructions (Invitrogen). The inhibition by test compound was calculated based on the TR-FRET ratio of 520/495. The activity was calculated as a percent of the control reaction. IC50 values were calculated from dose response curve by nonlinear regression analysis using GraphPad Prism software.

[2] = system: anti CD2/3/28 stimulated IL-17 release from PBMC of COPD patients; assay: Ex-vivo IL-17 inhibition from PBMCs of COPD patients; type: cell-based, human; details: for IC50: average over patients, 72 hrs
Description: (§1) Ex vivo effect of ROR γt inhibitors were evaluated on tissue samples of eligible subjects suffering from moderate (Stage II), severe (Stage III) to very severe (Stage IV) COPD classified in accordance with GOLD guidelines.
Blood was collected in a heparin tube prior to bronchoscopy. 1:1 diluted blood was layered over Histopaque and centrifuged at 400 g, 30 min, at room temperature. The PBMC layer at the interface was aspirated and washed twice with PBS prior to re-suspension in 10% FBS containing media.
(§2) PBMCs or BAL cells were seeded at 1-2×10^5 cells per well onto 96-well flat bottomed plates pre-coated with 2 μg/ml of CD2 antibody (LEAF Purified, Biolegend, #300212) and 10 μg/ml of CD3 antibody (Purified NA/LE, BD, #555329). This was followed by the pre-treatment with compounds (concentrations ranging from 1 nM to 10 uM) and roflumilast for one hour prior to addition of 2 μg/ml of soluble CD28 antibody (LEAF purified, Biolegend, #302914). BAL cells and PBMC were then incubated at 37° C. for 72 hrs in 5% CO2 incubator, after which supematants were collected and stored at −80° C. prior to cytokine analysis.
(§3) Supematants were analysed for IL-17A using either the High Sensitivity ELISA (eBioscience), or the LEGEND MAX™ ELISA kit (Biolegend) according to the manufacturer's instructions.
(§4) IL-17 cytokine concentrations in the supematants were determined from the standard curve plot. Percent inhibition for each set treated with compound was calculated using the formula: Percent inhibition={100−(pg/ml of test compound/pg/ml of control×100)}. IC50 values were calculated from the dose response curves by nonlinear regression analysis using GraphPad Prism Software. Results

[3] = system: anti CD2/3/28 stimulated IL-17 release from COPD lung BAL cells; assay: Ex-vivo IL-17 inhibition from BAL cells of COPD patients; type: cell-based, human; details: for IC50: average over patients, 72 hrs
Description: as §1
Flexible fiber optic bronchoscopy was performed on 6 eligible subjects (COPD patients) after written valid consent and lignocaine nebulization. Bronchoscope was wedged into bronchus, pre-warmed sterile saline solution instilled into the lobes and bronchoalveolar lavage was collected in sterile container on ice. The filtrate was passed through the cell strainer for removing the particulate matter and centrifuged at 2000 rpm for 10 mins. The BAL cell pellet obtained was further treated with ACK buffer to lyse out the RBCs. Isolated BAL cells per suspended in 10% FBS containing medium.
as §2, §3, §4

[4] = system: cigarette smoke (CS) induced pulmonary inflammation model in male C57BL6/J mice; assay: Cigarette smoke (CS) induced pulmonary inflammation model, 7 days exposure, BAL cell count; type: in vivo; details: i.n., od, 7 days CS exposure; for CS mediated increase in macrophages in BALf / CS mediated increase in neutrophils in BALf / CS mediated increase in total leukocyte count (TLC) in BALf: BAL 20 hours after last smoke exposure
Description: Male C57BL/6 mice were exposed alternately to cigarette smoke (10 Kentucky Research Cigarettes 3R4F) and fresh air for 50 minutes (10 seconds cigarette smoke+5 seconds air for 19 puffs per cigarette) twice daily for 7 days in a whole-body box exposure system (SIU24, ProMech Lab Holding AB, Sweden). Test compounds were sonicated in 1×PBS containing 0.005% tween 80. For localized delivery to lung, animals were administered vehicle or test compounds intranasally (i.n.) (40 μl per animal) under isoflurane anaesthesia, once or twice in a day, 1 hour before smoke exposure. Non-drug-treated air and smoked control animals were given vehicle before exposure to fresh air or smoke as appropriate. Animals were sacrificed 20 hours after the last smoke exposure and subjected to bronchoalveolar lavage (BAL). Total and differential BAL cell count was performed.
BAL was performed at approximately 20 hours after final smoke exposure. Animals were euthanized with an overdose of urethane, trachea was exposed and BAL was performed 4 times using 0.3 ml PBS. All aspirates of BAL were pooled and total numbers of cells were determined using a hemocytometer. BALf was centrifuged. The cell pellet collected after centrifugation was resuspended in 15 μL serum and used for preparation of smears.
For cell differentials, slides were stained with Leishman's stain and a differential cell count of 500 cells based on standard morphology was performed manually.
Total and differential cell count was determined in the BALf. The results were expressed as percent inhibition of leukocytes in BALf. The change in the treatments was statistically evaluated by ANOVA followed by Dunnett's multiple comparisons test.

human RORγ receptor (GST-tagged ROR gamma ligand binding domain), sequence (P51449 269-508): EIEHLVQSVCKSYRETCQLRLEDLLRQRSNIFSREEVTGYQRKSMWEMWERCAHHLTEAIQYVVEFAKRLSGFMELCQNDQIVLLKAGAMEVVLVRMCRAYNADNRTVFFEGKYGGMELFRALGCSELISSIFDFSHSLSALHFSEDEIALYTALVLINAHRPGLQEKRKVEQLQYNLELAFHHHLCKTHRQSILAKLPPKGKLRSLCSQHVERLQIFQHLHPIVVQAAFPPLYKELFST

CCn1c(C(C)(C)Oc2ccc(F)cc2F)nc2cc(NC(=O)Cc3ccc(S(=O)(=O)CC)cc3)ccc21 [Compound 1]
IC50 [1]: 4.26 nM | IC50 ([2]; Homo sapiens): 147 nM | IC50 ([3]; Homo sapiens): 350 nM

CCS(=O)(=O)c1ccc(CC(=O)Nc2ccc(OC(C)(C)c3ccc(Cl)cc3Cl)cc2)cc1 [Compound 3]
IC50 [1]: 5.52 nM | inhibition of pulmonary inflammation induced by cigarette smoke [4]: significant inhibition | CS mediated increase in macrophages in BALf [4]: significantly prevented | CS mediated increase in neutrophils in BALf [4]: significantly prevented | CS mediated increase in total leukocyte count (TLC) in BALf [4]: significantly prevented

CCS(=O)(=O)c1ccc(CC(=O)Nc2ccc(OC(C)(C)c3ccc(Cl)cc3Cl)c(F)c2)cc1 [Compound 4]
IC50 [1]: 5.99 nM

CCS(=O)(=O)c1ccc(CC(=O)Nc2ccc(C#CC(C)(C)Oc3ccc(Cl)c(F)c3)cc2)cc1 [Compound 5]
IC50 [1]: 17.4 nM

CCS(=O)(=O)c1ccc(CC(=O)Nc2ccc(OC3(c4ccc(Cl)cc4Cl)CCOCC3)cc2)cc1 [Compound 9]
IC50 [1]: 18.4 nM | IC50 ([2]; Homo sapiens): 360 nM | inhibition of pulmonary inflammation induced by cigarette smoke [4]: significant inhibition | CS mediated increase in macrophages in BALf [4]: significantly prevented | CS mediated increase in neutrophils in BALf [4]: significantly prevented | CS mediated increase in total leukocyte count (TLC) in BALf [4]: significantly prevented | IC50 ([3]; Homo sapiens): 2390 nM

CCS(=O)(=O)c1ccc(CC(=O)Nc2ccc(OC3(c4ccc(Cl)cc4Cl)CCOCC3)c(F)c2)cc1 [Compound 10]
IC50 [1]: 16.2 nM | IC50 [2]: 367 nM | IC50 [3]: 720 nM

CCS(=O)(=O)c1ccc(CC(=O)Nc2ccc(OC(C)(C)c3ncc(Cl)cc3Cl)c(F)c2)cc1 [Compound 11]
IC50 [1]: 25.7 nM | IC50 [2]: 84 nM | IC50 [3]: 2700 nM

O=C(Nc1c(Cl)cncc1Cl)c1ccc(OC(F)F)c(OCC2CC2)c1 [Roflumilast, reference compound]
inhibition at 10 µM ([2]; Homo sapiens, at 10 μM, read-out: PBMC IL-17 percent inhibition): 20.2% | inhibition at 10 µM ([3]; Homo sapiens, at 10 μM, read-out: BAL IL-17 percent inhibition): 6.75%
